Measurements: publication PMC11245557, “Differential potassium channel inhibitory activities of a novel thermostable degradation peptide BmKcug1a-P1 from scorpion medicinal material and its N-terminal truncated/restored peptides” (Scientific Reports, 2024)
Bridge positions count the residues as written; N and C are the ends. Peptide text beside a SMILES is read from it.

Key:
Format in all cases: cell-based
hKv1.3 channel = molecular target: T1, hKv1.3 channel (Homo sapiens, UniProt P22001); assay: Whole-cell patch clamp, hKv1.3 currents in transfected HEK293T cells; settings: mean ± SE; for IC50: dose-response fitted with modified Hill equation; for IC50 / inhibition of hKv1.3 channel current: SEM
T1 construct: expressed in transfected cells; host or cells: HEK293T
T1 sequence (P22001 whole entry): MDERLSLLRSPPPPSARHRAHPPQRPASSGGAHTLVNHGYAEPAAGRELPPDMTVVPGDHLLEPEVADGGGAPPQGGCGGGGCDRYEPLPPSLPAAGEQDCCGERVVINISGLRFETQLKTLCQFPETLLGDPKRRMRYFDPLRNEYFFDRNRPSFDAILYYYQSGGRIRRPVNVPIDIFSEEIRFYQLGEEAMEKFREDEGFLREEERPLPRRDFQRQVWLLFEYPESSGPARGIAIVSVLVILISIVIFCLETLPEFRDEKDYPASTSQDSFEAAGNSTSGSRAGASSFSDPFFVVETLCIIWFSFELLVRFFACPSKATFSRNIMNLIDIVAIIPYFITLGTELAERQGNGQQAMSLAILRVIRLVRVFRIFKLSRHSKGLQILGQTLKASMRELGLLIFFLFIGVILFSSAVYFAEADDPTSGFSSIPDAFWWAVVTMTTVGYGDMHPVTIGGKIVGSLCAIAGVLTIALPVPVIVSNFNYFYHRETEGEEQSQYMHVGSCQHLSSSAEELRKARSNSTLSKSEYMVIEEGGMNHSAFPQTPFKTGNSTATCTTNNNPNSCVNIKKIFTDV
Excerpt: (§1) The cDNA fragments encoding potassium channels were provided by others as previously described. The cDNA encoding hKv1.1 channel and hKv1.3 channel were cloned into the pCDNA3.1(+) vector. The cDNA encoding hKv1.2 channel, hKv1.6 channel and hKv3.2 channel were inserted into the pIRES2-EGFP vector.
(§2) HEK293T cell lines were obtained from the BeNa Culture Collection (Xinyang, China) and maintained in DMEM (Dulbecco’s Modified Eagle Medium, Gibco, Pittsburgh, PA, USA) supplemented with 10% fetal bovine serum (FBS, Gibco) and 1% penicillin/streptomycin (Gibco). Cells were passaged using Pancreatin (Gibco). For transfection experiments, HEK293T cells were seeded in appropriate culture vessels and allowed to reach 70–80% confluency. The expression vectors of pEGFP-N1 and potassium channels were co-transfected into HEK293T cells using ExFect Transfection Reagent (Vazyme, Nanjing, China) following its manufacturer’s instructions. Briefly, plasmid DNA and transfection reagent were mixed in serum-free medium, incubated for 15–30 min at room temperature to allow complex formation, and then added to the cells. After 24–48 h transfection, the single positive cells were selected based on the presence of GFP fluorescence to assess the potassium channel inhibiting activities of the peptides using whole cell patch clamp technique.
(§3) An EPC-10 patch-clamp amplifier which was controlled by PatchMaster software (HEKA Elektronik, Lambrecht, Germany) was applied to measure and record the potassium currents for whole-cell. The MPS-2 multichannel microperfusion system (INBIO Inc., Wuhan, China) was applied to exchange the external bath solution with different concentration of peptides. According to the protocol as previously described, the internal patch pipette solution and bath solution were prepared. The peptides were dissolved in Bath solution with 0.01% BSA (Gibco, Pittsburgh, PA, USA) to different concentrations. The potassium currents of hKv1.1, hKv1.2, hKv1.3, hKv1.6 and hKv3.2 channel were generated following the respective protocols as previously described. The results of the electrophysiological experiment are presented as the mean ± SE, and over three cells for each peptide in any concentration were examined ([…]).
(§4) For electrophysiological experiments, we used the ClampFit (Molecular Devices, Sunnyvale, CA, USA) and SigmaPlot software (IBM SPSS, Chicago, IL, USA) to analyze the recorded data. The dose–response relationship between channel current and peptide inhibition is fitted by the modified Hill equation: Ipeptide/Icontrol = 1/{1 + [peptide]/IC50}, in which Ipeptide represent the potassium current under the inhibition of peptide, Icontrol represent the peak current, IC50 is the half-maximum inhibition concentration, and [peptide] represents the concentration of the peptide. The half inhibitory concentration (IC50) was the parameter to be fitted.

hKv1.1 channel = molecular target: T2, hKv1.1 channel (Homo sapiens, UniProt Q09470); assay: Whole-cell patch clamp, hKv1.1 currents in transfected HEK293T cells; settings: 1 μM peptide, mean ± SE, n ≥ 3, SEM
T2 construct: expressed in transfected cells; host or cells: HEK293T
T2 sequence (Q09470 whole entry): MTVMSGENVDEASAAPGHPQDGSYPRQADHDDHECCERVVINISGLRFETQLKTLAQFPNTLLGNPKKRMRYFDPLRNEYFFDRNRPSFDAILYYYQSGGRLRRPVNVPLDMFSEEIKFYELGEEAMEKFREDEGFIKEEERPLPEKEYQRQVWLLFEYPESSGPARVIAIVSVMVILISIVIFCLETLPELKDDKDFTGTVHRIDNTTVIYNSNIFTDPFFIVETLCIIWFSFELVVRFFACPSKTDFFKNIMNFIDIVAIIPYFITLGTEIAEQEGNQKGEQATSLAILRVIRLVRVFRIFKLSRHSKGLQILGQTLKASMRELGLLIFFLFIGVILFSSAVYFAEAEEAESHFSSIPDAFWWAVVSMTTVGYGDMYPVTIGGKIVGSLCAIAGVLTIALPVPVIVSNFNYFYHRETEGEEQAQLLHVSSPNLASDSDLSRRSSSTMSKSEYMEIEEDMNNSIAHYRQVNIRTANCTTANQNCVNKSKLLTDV
Excerpt: as §1
as §2, with “Briefly, plasmid DNA and transfection reagent were mixed in serum-free medium, incubated for 15–30 min at room temperature to allow complex formation, and then added to the cells.” left out, “technique. […]” for “technique.”
(§5) For electrophysiological experiments, we used the ClampFit (Molecular Devices, Sunnyvale, CA, USA) and SigmaPlot software (IBM SPSS, Chicago, IL, USA) to analyze the recorded data. […]

hKv1.2 channel = molecular target: T3, hKv1.2 channel (Homo sapiens, UniProt P16389); assay: Whole-cell patch clamp, hKv1.2 currents in transfected HEK293T cells; settings: mean ± SE
T3 construct: expressed in transfected cells; host or cells: HEK293T
T3 sequence (P16389 whole entry): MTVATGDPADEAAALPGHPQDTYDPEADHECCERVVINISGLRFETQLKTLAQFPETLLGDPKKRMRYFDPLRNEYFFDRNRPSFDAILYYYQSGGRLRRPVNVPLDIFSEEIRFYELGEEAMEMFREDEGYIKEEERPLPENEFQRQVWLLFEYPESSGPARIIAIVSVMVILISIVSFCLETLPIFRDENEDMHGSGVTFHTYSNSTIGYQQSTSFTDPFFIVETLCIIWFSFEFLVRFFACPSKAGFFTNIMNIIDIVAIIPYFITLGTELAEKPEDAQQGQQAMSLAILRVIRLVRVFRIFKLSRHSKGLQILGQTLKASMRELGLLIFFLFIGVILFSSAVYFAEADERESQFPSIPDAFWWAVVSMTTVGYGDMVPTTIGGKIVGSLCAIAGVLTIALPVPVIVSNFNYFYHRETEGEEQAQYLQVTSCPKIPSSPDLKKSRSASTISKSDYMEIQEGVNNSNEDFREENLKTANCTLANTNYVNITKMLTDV
Excerpt: as §1, §2, §3, §4

hKv1.6 channel = molecular target: T4, hKv1.6 channel (Homo sapiens, UniProt P17658); assay: Whole-cell patch clamp, hKv1.6 currents in transfected HEK293T cells; settings: 1 μM peptide, mean ± SE, n ≥ 3, SEM
T4 construct: expressed in transfected cells; host or cells: HEK293T
T4 sequence (P17658 whole entry): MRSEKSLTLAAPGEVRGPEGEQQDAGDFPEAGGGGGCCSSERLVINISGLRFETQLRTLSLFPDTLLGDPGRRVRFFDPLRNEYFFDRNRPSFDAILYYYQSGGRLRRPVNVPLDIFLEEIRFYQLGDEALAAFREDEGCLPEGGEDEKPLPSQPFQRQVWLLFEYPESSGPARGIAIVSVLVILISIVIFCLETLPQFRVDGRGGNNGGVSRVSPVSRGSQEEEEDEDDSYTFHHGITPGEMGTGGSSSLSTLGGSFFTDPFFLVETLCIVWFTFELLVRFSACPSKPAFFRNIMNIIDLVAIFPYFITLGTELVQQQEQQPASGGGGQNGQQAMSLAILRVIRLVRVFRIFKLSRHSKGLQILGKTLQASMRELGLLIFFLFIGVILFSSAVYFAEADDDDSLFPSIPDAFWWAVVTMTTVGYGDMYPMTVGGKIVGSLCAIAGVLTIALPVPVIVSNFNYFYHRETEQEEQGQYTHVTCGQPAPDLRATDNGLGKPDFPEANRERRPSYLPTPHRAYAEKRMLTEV
Excerpt: as §1
as §2, with “Briefly, plasmid DNA and transfection reagent were mixed in serum-free medium, incubated for 15–30 min at room temperature to allow complex formation, and then added to the cells.” left out, “technique. […]” for “technique.”
as §5

hKv3.2 channel = molecular target: T5, hKv3.2 channel (Homo sapiens, UniProt Q96PR1); assay: Whole-cell patch clamp, hKv3.2 currents in transfected HEK293T cells; settings: 1 μM peptide, mean ± SE, n ≥ 3, SEM
T5 construct: expressed in transfected cells; host or cells: HEK293T
T5 sequence (Q96PR1 1-638): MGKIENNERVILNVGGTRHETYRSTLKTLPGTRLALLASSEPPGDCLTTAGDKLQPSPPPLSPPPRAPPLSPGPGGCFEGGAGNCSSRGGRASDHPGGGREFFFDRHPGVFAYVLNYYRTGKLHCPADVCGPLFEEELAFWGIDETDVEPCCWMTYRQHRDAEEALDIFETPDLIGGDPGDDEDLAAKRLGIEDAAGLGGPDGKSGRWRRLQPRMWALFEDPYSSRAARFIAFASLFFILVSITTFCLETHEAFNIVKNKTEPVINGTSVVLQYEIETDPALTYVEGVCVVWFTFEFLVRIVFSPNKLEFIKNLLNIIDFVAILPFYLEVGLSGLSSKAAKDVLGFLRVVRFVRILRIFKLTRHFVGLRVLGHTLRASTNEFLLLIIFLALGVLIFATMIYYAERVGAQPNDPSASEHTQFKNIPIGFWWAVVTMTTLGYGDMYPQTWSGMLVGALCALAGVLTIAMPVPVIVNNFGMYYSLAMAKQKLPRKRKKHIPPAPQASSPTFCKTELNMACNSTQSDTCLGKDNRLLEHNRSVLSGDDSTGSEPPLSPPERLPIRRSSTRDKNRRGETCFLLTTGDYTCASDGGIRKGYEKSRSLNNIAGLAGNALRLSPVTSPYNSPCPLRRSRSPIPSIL
Excerpt: as §1
as §2, with “Briefly, plasmid DNA and transfection reagent were mixed in serum-free medium, incubated for 15–30 min at room temperature to allow complex formation, and then added to the cells.” left out, “technique. […]” for “technique.”
as §5

[1] = 1 μM peptide, HEK293T, n ≥ 3, SEM

CSCC[C@@H]1NC(=O)[C@@H]2CSSC[C@H](NC(=O)[C@H](CO)NC(=O)[C@@H](NC(=O)[C@@H](N)CC(N)=O)C(C)C)C(=O)N[C@@H](CO)C(=O)N[C@@H](C)C(=O)N[C@@H](CO)C(=O)N[C@@H](CO)C(=O)N[C@@H](CCC(N)=O)C(=O)N[C@H]3CSSC[C@H](NC(=O)[C@H](CCCCN)NC(=O)[C@H](CO)NC(=O)[C@H](CC(N)=O)NC1=O)C(=O)N[C@@H](CCCNC(=N)N)C(=O)N[C@H](C(=O)N[C@@H](Cc1ccc(O)cc1)C(=O)N[C@@H](CO)C(=O)O)CSSC[C@H](NC(=O)[C@H](C(C)C)NC(=O)[C@@H]1CCCN1C(=O)[C@H](Cc1c[nH]c4ccccc14)NC3=O)C(=O)N[C@@H](CCC(=O)O)C(=O)N[C@@H](CCCCN)C(=O)N[C@@H](CC(C)C)C(=O)N[C@@H](Cc1ccccc1)C(=O)NCC(=O)N[C@@H]([C@@H](C)O)C(=O)N[C@@H](Cc1ccc(O)cc1)C(=O)N[C@@H](CCCNC(=N)N)C(=O)NCC(=O)N[C@@H](CCCCN)C(=O)N2 [BmKcug1a-P1-D2] (H-NVSCSASSQCWPVCEKLFGTYRGKCMNSKCRCYS-OH; disulfide 4-25, 10-30, 14-32)
IC50 (hKv1.3 channel; HEK293T): 1660 ± 180 nM

CSCC[C@@H]1NC(=O)[C@@H]2CSSC[C@H](NC(=O)[C@H](CO)NC(=O)[C@@H](NC(=O)[C@H](CC(N)=O)NC(=O)[C@@H](NC(=O)[C@@H](N)Cc3ccccc3)[C@@H](C)O)C(C)C)C(=O)N[C@@H](CO)C(=O)N[C@@H](C)C(=O)N[C@@H](CO)C(=O)N[C@@H](CO)C(=O)N[C@@H](CCC(N)=O)C(=O)N[C@H]3CSSC[C@H](NC(=O)[C@H](CCCCN)NC(=O)[C@H](CO)NC(=O)[C@H](CC(N)=O)NC1=O)C(=O)N[C@@H](CCCNC(=N)N)C(=O)N[C@H](C(=O)N[C@@H](Cc1ccc(O)cc1)C(=O)N[C@@H](CO)C(=O)O)CSSC[C@H](NC(=O)[C@H](C(C)C)NC(=O)[C@@H]1CCCN1C(=O)[C@H](Cc1c[nH]c4ccccc14)NC3=O)C(=O)N[C@@H](CCC(=O)O)C(=O)N[C@@H](CCCCN)C(=O)N[C@@H](CC(C)C)C(=O)N[C@@H](Cc1ccccc1)C(=O)NCC(=O)N[C@@H]([C@@H](C)O)C(=O)N[C@@H](Cc1ccc(O)cc1)C(=O)N[C@@H](CCCNC(=N)N)C(=O)NCC(=O)N[C@@H](CCCCN)C(=O)N2 [BmKcug1a-P1] (H-FTNVSCSASSQCWPVCEKLFGTYRGKCMNSKCRCYS-OH; disulfide 6-27, 12-32, 16-34)
inhibition of potassium currents mediated by hKv1.1 (hKv1.1 channel): 1.9 ± 0.3%
inhibition of hKv1.2 channel current (hKv1.2 channel; 200 nM peptide, SEM): 12.6 ± 3.3%
inhibition of potassium currents mediated by hKv1.2 (hKv1.2 channel; [1]): 37.7 ± 7.4%
inhibition of hKv1.2 channel current (hKv1.2 channel; 5 μM peptide, SEM): 64.1 ± 4.5%
inhibition of hKv1.2 channel current (hKv1.2 channel; 25 μM peptide, SEM): 83.9 ± 2.2%
IC50 (hKv1.2 channel; HEK293T, dose-response fitted with modified Hill equation, SEM): 2120 ± 270 nM
inhibition of hKv1.3 channel current (hKv1.3 channel; 40 nM peptide): 7.0 ± 0.5%
inhibition of hKv1.3 channel current (hKv1.3 channel; 200 nM peptide): 18.3 ± 2.1%
inhibition of potassium currents mediated by hKv1.3 (hKv1.3 channel; [1]): 47.3 ± 3.5%
inhibition of hKv1.3 channel current (hKv1.3 channel; 5 μM peptide): 65.2 ± 2.3%
inhibition of hKv1.3 channel current (hKv1.3 channel; 25 μM peptide): 82.0 ± 0.6%
IC50 (hKv1.3 channel; HEK293T): 1540 ± 280 nM
inhibition of potassium currents mediated by hKv1.6 (hKv1.6 channel): 3.8 ± 1.6%
inhibition of potassium currents mediated by hKv3.2 (hKv3.2 channel): 6.5 ± 0.9%

CSCC[C@@H]1NC(=O)[C@@H]2CSSC[C@H](NC(=O)[C@@H](N)CO)C(=O)N[C@@H](CO)C(=O)N[C@@H](C)C(=O)N[C@@H](CO)C(=O)N[C@@H](CO)C(=O)N[C@@H](CCC(N)=O)C(=O)N[C@H]3CSSC[C@H](NC(=O)[C@H](CCCCN)NC(=O)[C@H](CO)NC(=O)[C@H](CC(N)=O)NC1=O)C(=O)N[C@@H](CCCNC(=N)N)C(=O)N[C@H](C(=O)N[C@@H](Cc1ccc(O)cc1)C(=O)N[C@@H](CO)C(=O)O)CSSC[C@H](NC(=O)[C@H](C(C)C)NC(=O)[C@@H]1CCCN1C(=O)[C@H](Cc1c[nH]c4ccccc14)NC3=O)C(=O)N[C@@H](CCC(=O)O)C(=O)N[C@@H](CCCCN)C(=O)N[C@@H](CC(C)C)C(=O)N[C@@H](Cc1ccccc1)C(=O)NCC(=O)N[C@@H]([C@@H](C)O)C(=O)N[C@@H](Cc1ccc(O)cc1)C(=O)N[C@@H](CCCNC(=N)N)C(=O)NCC(=O)N[C@@H](CCCCN)C(=O)N2 [BmKcug1a-P1-D4] (H-SCSASSQCWPVCEKLFGTYRGKCMNSKCRCYS-OH; disulfide 2-23, 8-28, 12-30 (inferred); N-terminus and C-terminus assumed)
IC50 (hKv1.3 channel; HEK293T): 2210 ± 280 nM
